From the NIST ThermoML archive (doi:10.1021/je900221m)

Assay: cn = amount concentration of the nth substance listed, in mol/dm3
Conditions: 101 kPa, Liquid, Taylor dispersion method

`NNC(=O)c1ccncc1` [isonicotinic acid hydrazide] + O showed a binary diffusion coefficient (298.15 K, c1 = 0) of 8.26e-10 m2/s, a binary diffusion coefficient (298.15 K, c1 = 0.005) of 8.25e-10 m2/s and a binary diffusion coefficient (298.15 K, c1 = 0.01) of 8.23e-10 m2/s. The binary diffusion coefficient (298.15 K, c1 = 0.02) was 8.21e-10 m2/s, the binary diffusion coefficient (298.15 K, c1 = 0.05) was 8.14e-10 m2/s and the binary diffusion coefficient (298.15 K, c1 = 0.1) was 8.09e-10 m2/s. For the same compound, the binary diffusion coefficient (310.15 K, c1 = 0) was 1.19e-09 m2/s, the binary diffusion coefficient (310.15 K, c1 = 0.005) was 1.18e-09 m2/s and the binary diffusion coefficient (310.15 K, c1 = 0.01) was 1.15e-09 m2/s. It also gave a binary diffusion coefficient (310.15 K, c1 = 0.02) of 1.11e-09 m2/s, a binary diffusion coefficient (310.15 K, c1 = 0.05) of 1.09e-09 m2/s and a binary diffusion coefficient (310.15 K, c1 = 0.1) of 1.04e-09 m2/s.
